Reference: patent publication US11090308B2, “Methods of treating liver disorders or lipid disorders with a THR-beta agonist” (Madrigal Pharmaceuticals, Inc., priority 2016, dated 2021)

Legend:
Assay type in all cases: in vitro ADME
CYP2B6 = target: T1, CYP2B6 (Homo sapiens, UniProt P20813); assay: In vitro Cytochrome P-450 enzyme assay, CYP2B6
T1 sequence (P20813 1-491): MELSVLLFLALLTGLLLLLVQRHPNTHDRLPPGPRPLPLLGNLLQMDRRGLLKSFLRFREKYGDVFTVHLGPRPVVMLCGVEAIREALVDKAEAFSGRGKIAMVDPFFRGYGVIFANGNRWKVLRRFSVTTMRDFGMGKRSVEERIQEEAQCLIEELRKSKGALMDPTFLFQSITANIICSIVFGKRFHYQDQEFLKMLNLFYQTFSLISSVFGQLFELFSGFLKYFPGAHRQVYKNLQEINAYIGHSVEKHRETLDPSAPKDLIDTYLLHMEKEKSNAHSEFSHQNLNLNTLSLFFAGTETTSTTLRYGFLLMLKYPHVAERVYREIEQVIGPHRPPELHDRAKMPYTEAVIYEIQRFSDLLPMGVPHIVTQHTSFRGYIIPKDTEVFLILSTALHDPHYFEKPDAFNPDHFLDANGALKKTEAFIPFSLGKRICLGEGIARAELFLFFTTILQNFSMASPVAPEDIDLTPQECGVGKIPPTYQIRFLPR
Source text: (§1) The following studies have been conducted: (a) in vitro drug protein binding, transporter (organic anion transporting polypeptide [OATP], P-glycoprotein [P-gp], breast cancer-related protein [BCRP], and multiple drug resistance protein 1 [MDR1]), and cytochrome P-450 enzyme assays to investigate absorption, distribution, and excretion; (b) in vivo MGL-3196 rat and dog oral PK and bioavailability studies; (c) in vivo ^14C-MGL-3196 rat and dog oral pharmacokinetics, absorption, excretion, and tissue distribution by quantitative whole-body autoradiography (QWBA) studies; and (d) liver disposition of MGL-3196 using an in vitro sandwiched hepatocyte model system (B-CLEAR® technology) in dog (SCDH) and human (SCHH) hepatocytes.

CYP2C19 = CYP2C19 (Homo sapiens, UniProt P33261); assay: In vitro Cytochrome P-450 enzyme assay, CYP2C19
OATP1B1 = target: T2, OATP1B1 (Homo sapiens, UniProt Q9Y6L6); assay: In vitro drug transporter assay, OATP1B1
T2 sequence (Q9Y6L6 1-691): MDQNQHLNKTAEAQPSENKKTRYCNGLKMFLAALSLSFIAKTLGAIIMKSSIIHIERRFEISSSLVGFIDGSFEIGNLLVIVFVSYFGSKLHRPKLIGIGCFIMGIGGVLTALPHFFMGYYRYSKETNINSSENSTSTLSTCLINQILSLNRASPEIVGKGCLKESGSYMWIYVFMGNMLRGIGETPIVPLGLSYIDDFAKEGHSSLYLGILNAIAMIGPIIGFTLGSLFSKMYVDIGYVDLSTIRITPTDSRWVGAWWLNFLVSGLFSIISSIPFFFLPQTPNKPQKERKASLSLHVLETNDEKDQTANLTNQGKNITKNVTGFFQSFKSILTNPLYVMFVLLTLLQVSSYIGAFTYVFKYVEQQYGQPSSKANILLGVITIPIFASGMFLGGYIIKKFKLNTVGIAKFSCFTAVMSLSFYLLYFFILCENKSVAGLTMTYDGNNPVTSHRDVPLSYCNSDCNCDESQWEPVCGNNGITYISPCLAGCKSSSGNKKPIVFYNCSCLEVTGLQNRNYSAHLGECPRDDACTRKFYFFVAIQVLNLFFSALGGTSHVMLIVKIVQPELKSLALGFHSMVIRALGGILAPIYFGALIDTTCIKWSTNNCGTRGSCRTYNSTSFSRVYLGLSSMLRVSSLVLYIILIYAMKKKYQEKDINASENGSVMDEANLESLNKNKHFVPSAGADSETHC
Source text: as §1

[1] = system: sandwich-cultured human hepatocytes (SCHH); assay: Hepatobiliary disposition in sandwich-cultured human hepatocytes (SCHH)
Protocol: Qualyst Transporter Solutions evaluated the hepatic uptake of MGL-3196 in sandwich cultured human hypetocytes (SCHH). MGL-3196 was evaluated at 30 μM after a 20-minute incubation (based on a pilot uptake study) in the presence of a physiologic concentration of bovine serum albumin (BSA, ˜4%). The experiment was performed in a 24-well format using 1 lot of Transporter Certified™ human hepatocytes (N=1). Each test condition was performed in 3 wells to provide triplicate data. Sample preparation and LC/MS/MS analysis of cell lysate to determine concentrations of MGL-3196 was performed at QTS according to analytical assay methodology and analytical standards supplied by Madrigal Pharmaceuticals. The following parameter for test article were determined: (a) total accumulation (hepatic uptake), (b) cellular accumulation (intracellular concentration), (c) biliary excretion index (hepatic efflux), (d) Kp value (hepatic accumulation), (e) in vitro biliary clearance (predictive of in vivo biliary clearance), and (f) media accumulation (post incubation supernatant).
Parameters determined: • Bile Accumulation=Total Accumulationplus(+)Buffer−Cellular AccumulationMinus(−)Buffer
[formula] • AUC=(Incubation Time)*(Analyte ConcentrationMedia) • In vitro biliary clearance:
[formula] • (Kp ratio reflects the extent of MGL-3196 accumulation in hepatocyte to the total MGL-3196 concentration in the buffer, outside of the hepatocyte).
MGL-3196 and its metabolite, MGL-3196-M1 (M1), were evaluated in sandwich-cultured human hepatocytes (SCHH) to evaluate the effects of temperature and concentration on total accumulation. Incubations were performed in presence of 4% bovine serum albumin (BSA) for 20 minutes at 37° C. and 4° C. across multiple concentrations (3, 10, 30, and 100 μM). Following the hepatic accumulation study, a species comparison of the hepatobiliary disposition of MGL-3196 (30 μM) and its metabolite, M1, was evaluated in SCHH and sandwich-cultured dog hepatocytes (SCDH) in the presence of 4% BSA.

[2] = 20 min exposure to MGL-3196 30 μM, 4% BSA

CYP2C19, sequence (P33261 whole entry): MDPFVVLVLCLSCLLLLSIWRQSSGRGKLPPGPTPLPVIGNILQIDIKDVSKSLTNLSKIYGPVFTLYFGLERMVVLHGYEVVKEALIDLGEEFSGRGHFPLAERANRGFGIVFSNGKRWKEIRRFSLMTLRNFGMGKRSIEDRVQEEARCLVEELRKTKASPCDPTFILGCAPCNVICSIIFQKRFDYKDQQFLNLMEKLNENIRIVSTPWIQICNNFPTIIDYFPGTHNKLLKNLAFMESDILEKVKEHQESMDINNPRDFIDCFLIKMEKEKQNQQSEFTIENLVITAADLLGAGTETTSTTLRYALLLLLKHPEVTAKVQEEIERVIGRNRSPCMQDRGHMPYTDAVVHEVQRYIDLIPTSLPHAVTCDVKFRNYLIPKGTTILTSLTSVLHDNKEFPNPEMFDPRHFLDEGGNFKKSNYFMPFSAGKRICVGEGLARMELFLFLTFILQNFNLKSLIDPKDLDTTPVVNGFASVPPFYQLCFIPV

With `CC(C)c1cc(Oc2c(Cl)cc(-n3nc(C#N)c(=O)[nH]c3=O)cc2Cl)n[nH]c1=O` [MGL-3196, 2-(3,5-dichloro-4-((5-isopropyl-6-oxo-1,6-dihydropyridazin-3-yl)oxy)phenyl)-3,5-dioxo-2,3,4,5-tetrahydro-1,2,4-triazine-6-carbonitrile] the “Inhibitor of: CYP2B6” value (CYP2B6) was “not an inhibitor”, the “Inhibitor of: CYP2C19” value (CYP2C19) was “not an inhibitor” and the “Substrate for: OATP1B1” value (OATP1B1) was “OATP1B1;”. The “Inhibitor of: OATP1B1, % inhibition” value (OATP1B1; @ 10 uM Pravastatin) was 29%, the IC50 (OATP1B1; read-out: Inhibitor of: OATP1B1, IC50) was 3.7 µM and the “BEI (Biliary Excretion Index)” value [1, 2] was 33.7%. The “Bile Acc.” value [1, 2] was 293 pmol/mg, the “Cellular Acc.” value [1, 2] was 570 pmol/mg and the “ClBiliary (in vitro biliary clearance)” value [1, 2] was 1.45 mL/min/kg. For the same compound, the “ICC (intracellular concentration)” value [1, 2] was 74.2 µM, the Kp [1, 2] was 2.47 Ratio and the “Total Acc.” value [1, 2] was 863 pmol/mg.

In the case of `CC(CO)c1cc(Oc2c(Cl)cc(-n3nc(C#N)c(=O)[nH]c3=O)cc2Cl)n[nH]c1=O` (centres unmarked) [MGL-3623], the IC50 (CYP2B6; range given jointly for CYP2B6, CYP2C9, CYP2C19, weak, read-out: Inhibitor of: CYP2B6, IC50) is reported as 24 to 35 µM, the IC50 (CYP2C19; range given jointly for CYP2B6, CYP2C9, CYP2C19, weak, read-out: Inhibitor of: CYP2C19, IC50) is reported as 24 to 35 µM and the “Substrate for: OATP1B1” value (OATP1B1) is reported as “OATP1B1”. For the same compound, the inhibition at 10 µM (OATP1B1; @10 uM, insignificant, read-out: Inhibitor of: OATP1B1, % inhib) was 23%, the “BEI (Biliary Excretion Index)” value [1, 2] was 30.4% and the “Bile Acc.” value [1, 2] was 1.78 pmol/mg. The “Cellular Acc.” value [1, 2] was 4.01 pmol/mg, the “ICC (intracellular concentration)” value [1, 2] was 0.521 µM and the “PIS (post incubation supernatant, cell culture media)” value [1, 2] was “BLQ”. For the same compound, the “Total Acc.” value [1, 2] was 5.79 pmol/mg and the “accumulation as % of parent's total accumulation” value ([1]; MGL-3196 30 μM, 20 minutes) was 0.67%.
